These results are taken from PubChem BioAssay (NCI).

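Five concentrations, 48 hours, 96-well plates. TGI marks complete inhibition of growth.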

Among the test systems are ACHN renal; BT-549 breast; CAKI-1 renal; DU-145 prostate; HL-60(TB) leukemia; K-562 leukemia; NCI-H23 lung; OVCAR-3 ovarian; OVCAR-5 ovarian; OVCAR-8 ovarian; RXF 393 renal; SF-268 CNS; SF-295 CNS; SK-MEL-28 melanoma; SK-MEL-5 melanoma; SK-OV-3 ovarian; SNB-19 CNS; SNB-75 CNS; TK-10 renal.
Assay in all cases: DTP human tumour cell line panel, 48 h

Consider `C[N+](C)(C)/N=C/c1ccc(O)c(O)c1`, for which the TGI in the assay on ACHN renal, with BT-549 breast, in the assay on CAKI-1 renal, in the assay on DU-145 prostate, in the assay with HL-60(TB) leukemia and in the assay with K-562 leukemia was greater than 100 µM in each case. In addition, the concentration for total growth inhibition (TGI) with NCI-H23 lung, with OVCAR-3 ovarian, in the assay with OVCAR-5 ovarian, in the assay on OVCAR-8 ovarian, with RXF 393 renal and in the assay on SF-268 CNS was greater than 100 µM in each case. The TGI in the assay on SF-295 CNS is greater than 100 µM; in the assay with SK-MEL-28 melanoma, greater than 96.4 µM; with SK-MEL-5 melanoma it was greater than 100 µM; in the assay with SK-OV-3 ovarian, greater than 100 µM; in the assay on SNB-19 CNS it was greater than 100 µM; with SNB-75 CNS, greater than 100 µM. The molecule also returned a TGI in the assay on TK-10 renal greater than 100 µM.
In the case of `CN(C)CC1CCC/C(=C\c2ccc(OC(=O)/C=C/c3ccccc3)cc2)C1=O` (stereo not given), the TGI is 6.62 µM in the assay on ACHN renal; 4.47 µM in the assay with BT-549 breast; 3.38 µM in the assay with CAKI-1 renal; 7.11 µM with DU-145 prostate; greater than 100 µM in the assay on HL-60(TB) leukemia; greater than 42.6 µM in the assay with K-562 leukemia. Also, the TGI in the assay on NCI-H23 lung came to 4.04 µM; in the assay with OVCAR-3 ovarian, 3.63 µM; in the assay with OVCAR-5 ovarian it was 7.24 µM; with OVCAR-8 ovarian, 3.9 µM; in the assay on RXF 393 renal it was 3.71 µM; in the assay on SF-268 CNS it was 8.67 µM. For the same molecule, the TGI is 13.7 µM in the assay with SF-295 CNS; 7.49 µM in the assay with SK-MEL-28 melanoma; 12.9 µM in the assay on SK-MEL-5 melanoma; greater than 50.9 µM with SK-OV-3 ovarian; 20.7 µM in the assay on SNB-19 CNS; 17 µM in the assay with SNB-75 CNS. For the same molecule, the TGI with TK-10 renal was 3.76 µM.
In the case of `CSc1c(C(=O)Nc2ccc(C)cc2)c(N)n(N)c(=O)c1C#N`, the TGI with BT-549 breast, in the assay on CAKI-1 renal, in the assay with DU-145 prostate, with HL-60(TB) leukemia, in the assay on K-562 leukemia and in the assay on NCI-H23 lung was greater than 100 µM throughout. Moreover, the TGI with OVCAR-3 ovarian, in the assay with OVCAR-5 ovarian, in the assay on OVCAR-8 ovarian, in the assay on RXF 393 renal, in the assay with SF-268 CNS and with SK-MEL-28 melanoma was greater than 100 µM in each case. The TGI with SK-MEL-5 melanoma, in the assay on SK-OV-3 ovarian, with SNB-19 CNS, with SNB-75 CNS and in the assay on TK-10 renal was greater than 100 µM in each case.
On to `COc1cccc(C2ON=C(c3ccccc3)N2C23CC4CC(CC(C4)C2)C3)c1` (stereo not given), for which the total growth inhibition concentration (TGI) in the assay with ACHN renal, in the assay with BT-549 breast, in the assay with CAKI-1 renal, with DU-145 prostate, with HL-60(TB) leukemia and with K-562 leukemia was greater than 10 µM each time. Also, the TGI with NCI-H23 lung, in the assay on OVCAR-3 ovarian, in the assay with OVCAR-5 ovarian, in the assay on OVCAR-8 ovarian, in the assay with RXF 393 renal and in the assay with SF-268 CNS was greater than 10 µM each time. Further, the TGI with SF-295 CNS, with SK-MEL-28 melanoma, with SK-MEL-5 melanoma, in the assay on SK-OV-3 ovarian, in the assay on SNB-19 CNS and in the assay with SNB-75 CNS was greater than 10 µM throughout. Also, the TGI in the assay with TK-10 renal is greater than 10 µM.
With `CCOC(=O)NC(C(=O)OCC)(N1CCN(c2cc3c(cc2F)c(=O)c(C(=O)O)cn3CC)CC1)C(F)(F)F` (stereo not given), the TGI in the assay with ACHN renal, in the assay on BT-549 breast, in the assay with CAKI-1 renal, in the assay with DU-145 prostate, with HL-60(TB) leukemia and in the assay on K-562 leukemia was greater than 100 µM in each case. The TGI in the assay on NCI-H23 lung is greater than 100 µM; with OVCAR-3 ovarian, greater than 100 µM; in the assay with OVCAR-5 ovarian, greater than 100 µM; in the assay on OVCAR-8 ovarian it was 34 µM; in the assay with RXF 393 renal, greater than 100 µM; with SF-268 CNS, greater than 100 µM. The TGI in the assay on SF-295 CNS was greater than 100 µM; with SK-MEL-28 melanoma, 0.533 µM; in the assay with SK-MEL-5 melanoma, greater than 100 µM; in the assay on SK-OV-3 ovarian, greater than 100 µM; in the assay with SNB-19 CNS, greater than 100 µM; with SNB-75 CNS, greater than 100 µM. In addition, the TGI with TK-10 renal was greater than 100 µM.
For `Cc1cc(C)c2c(c1)C1=NCCN1C2(O)c1ccc(Cl)cc1` (stereo not given), the concentration for total growth inhibition (TGI) in the assay with ACHN renal worked out at 29.6 µM; in the assay with BT-549 breast, 26.4 µM; in the assay with CAKI-1 renal, 31.5 µM; with DU-145 prostate it was 40.5 µM; in the assay on HL-60(TB) leukemia it was 49.4 µM; in the assay with K-562 leukemia, 65 µM. For the same molecule, the TGI with NCI-H23 lung worked out at 33.1 µM; in the assay on OVCAR-3 ovarian, 31.4 µM; in the assay on OVCAR-5 ovarian it was 33.1 µM; in the assay with OVCAR-8 ovarian, 30.2 µM; in the assay on RXF 393 renal, 27.6 µM; in the assay on SF-268 CNS, 31 µM. Besides, the total growth inhibition concentration (TGI) amounted to 31.4 µM with SF-295 CNS; 31 µM in the assay on SK-MEL-28 melanoma; 27.7 µM in the assay on SK-MEL-5 melanoma; 28.5 µM in the assay with SK-OV-3 ovarian; 31.7 µM with SNB-19 CNS; 25 µM with SNB-75 CNS. The molecule also yielded a TGI in the assay with TK-10 renal of 15.5 µM.
In the case of `Cc1cc(C)nc(SCC(=O)OC2CC(C)CCC2C(C)C)n1` (stereo not given), the concentration for total growth inhibition (TGI) was 38.6 µM in the assay on ACHN renal; 79.9 µM in the assay with BT-549 breast; 48.6 µM in the assay on CAKI-1 renal; greater than 100 µM in the assay on DU-145 prostate; 44.2 µM with HL-60(TB) leukemia; 52.2 µM with K-562 leukemia. For the same molecule, the TGI with NCI-H23 lung is greater than 100 µM; in the assay on OVCAR-3 ovarian, 28.5 µM; with OVCAR-5 ovarian, 47.9 µM; in the assay on OVCAR-8 ovarian, greater than 100 µM; with RXF 393 renal, 32 µM; in the assay on SF-268 CNS it was greater than 100 µM. In addition, the TGI in the assay with SF-295 CNS is 31.6 µM; in the assay with SK-MEL-28 melanoma, greater than 100 µM; with SK-MEL-5 melanoma it was 29 µM; in the assay with SK-OV-3 ovarian it was greater than 100 µM; in the assay with SNB-19 CNS, 45.9 µM; in the assay with SNB-75 CNS, 65.8 µM. The same molecule showed a TGI in the assay with TK-10 renal of 89.9 µM.
In the case of `Cn1cc(S(=O)(=O)NC(=O)Nc2ccc(Cl)cc2)c2ccccc21`, the TGI in the assay on ACHN renal is greater than 100 µM; with BT-549 breast, greater than 100 µM; with CAKI-1 renal, 81 µM; in the assay on DU-145 prostate, greater than 100 µM; with HL-60(TB) leukemia, greater than 100 µM; in the assay with K-562 leukemia, greater than 100 µM. Further, the TGI in the assay on NCI-H23 lung, in the assay with OVCAR-3 ovarian, in the assay on OVCAR-5 ovarian, in the assay with OVCAR-8 ovarian, in the assay with RXF 393 renal and in the assay on SF-268 CNS was greater than 100 µM in each case. In addition, the TGI with SF-295 CNS, with SK-MEL-28 melanoma, with SK-MEL-5 melanoma, in the assay on SK-OV-3 ovarian, in the assay on SNB-19 CNS and with SNB-75 CNS was greater than 100 µM in each case. This molecule also showed a TGI in the assay on TK-10 renal of 55.2 µM.
